# According to patent EP1724268A1, “COMPOUND HAVING TGF-BETA INHIBITORY ACTIVITY AND PHARMACEUTICAL COMPOSITION CONTAINING SAME” (KIRIN BEER KABUSHIKI KAISHA, priority 2004, dated 2005):
# Where two headings read alike, the source gives them in different places.
# Tested on: TGFβ signal
# Experiment: TGFβ signal inhibitory activity, (SBE)4-Luc reporter in A549 cells (Test Examples 1A and 1B)
# Format: cell-based, human
# Settings: Homo sapiens, A549, read-out: TGFβ inhibition rate, %
# How it was run: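 Stable A549 line carrying (SBE)4-Luc Smad3-binding reporter treated with compound plus TGFβ-1 (2 ng/ml) for 4 hr; luciferase read by chemiluminescence. Percent inhibition relative to TGFβ-only and untreated cells, tested at 3 µM and 10 µM, some also at 1 µM.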
# [1] = 3 µM, compounds of Reference Examples (Test Example 1B)
# [2] = 10 µM, compounds of Reference Examples (Test Example 1B)
# [3] = test compound 3 µM, Reference Examples, Table 1B
# [4] = test compound 10 µM, Reference Examples, Table 1B
Structure (SMILES),inhibition at 3 µM [1] [%],inhibition at 10 µM [2] [%],inhibition at 3 µM [3] [%],inhibition at 10 µM [4] [%]
COc1cc2c(Oc3cc4cccnc4nc3C)ccnc2cc1OCC(O)CO (stereo not drawn) [Compound r403],27,66,,
COc1cc2c(Oc3cc4cccnc4nc3C)ccnc2cc1OCC(CO)CO [Compound r404],29,72,,
COc1cc2c(Oc3cc4cccnc4nc3C)ccnc2cc1OCCCCO [Compound r405],92,100,,
COc1cc2c(Oc3cc4cnccc4nc3C)ccnc2cc1OCc1ccccc1 [Compound r406],56,96,,
COc1cc2c(Oc3cc4cnccc4nc3C)ccnc2cc1OCCO [Compound r407],71,97,,
COc1cc2c(Oc3cc4cnccc4nc3C)ccnc2cc1OCC(O)CO (stereo not drawn) [Compound r408],38,79,,
"COc1cc2c(Oc3cc4ccccc4nc3C)ccnc2cc1NCCN1CCOCC1 [Compound r410, [6-Methoxy-4-(2-methyl-quinolin-3-yloxy)-quinolin-7-yl]-(2-morpholin-4-yl-ethyl)-amine]",91,100,,
COc1cc2c(Oc3cc4ccccc4nc3C)ccnc2cc1CCCO [Compound r411],50,85,,
COc1cc2c(Oc3cc4ccccc4nc3C)ccnc2cc1CCCN1CCOCC1 [Compound r412],77,99,,
CCOC(=O)/C=C/c1cc2nccc(Oc3cc4ccccc4nc3C)c2cc1OC [Compound r413],31,76,,
"COc1cc2nccc(Oc3cc4ccccc4nc3C)c2cc1OCc1ccccc1 [Compound r415, 6-Benzyloxy-7-methoxy-4-(2-methyl-quinolin-3-yloxy)-quinoline]",77,100,,
"COc1cc2nccc(Oc3cc4ccccc4nc3C)c2cc1OCCn1ccnc1 [Compound r416, 6-(2-Imidazol-1-yl-ethoxy)-7-methoxy-4-(2-methyl-quinolin-3-yloxy)-quinoline]",92,100,,
CCOC(=O)c1cc(F)ccc1Sc1ccnc2cc(OC)c(OC)cc12 [Compound r419],7,67,,
COc1cc2nccc(Oc3cc4cccnc4nc3-c3ccccc3)c2cc1OC [Compound r422],100,100,,
CCc1nc2ncccc2cc1Oc1ccnc2cc(OC)c(OC)cc12 [Compound r423],88,100,,
COc1cc2nccc(Oc3cnc4ncccc4c3)c2cc1OC [Compound r427],44,80,,
COc1cc2nccc(Oc3cc(C)c(C)nc3-c3ccc(O)nc3)c2cc1OC [Compound r430],19,78,,
Cc1ccc(-c2nc(C)c(C)cc2Oc2ccnc3ccccc23)nc1 [Compound r431],97,99,,
Cc1ccc(-c2nc(C)c(C)cc2Oc2ccnc3cc(Cl)ccc23)nc1 [Compound r432],99,100,,
COc1cc2c(Oc3cc4cccnc4nc3C)ccnc2cc1OCCN1CCOCC1 [Compound r441],97,100,,
COc1cc2c(Oc3cc(C)c(C)nc3-c3cccc(C)n3)ccnc2cc1OCc1ccccc1 [Compound r442],70,100,,
COc1cc2c(Oc3cc(C)c(C)nc3-c3cccc(C)n3)ccnc2cc1O [Compound r443],60,97,,

Structure (SMILES),inhibition at 3 µM [1] [%],inhibition at 10 µM [2] [%],inhibition at 3 µM [3] [%],inhibition at 10 µM [4] [%]
COc1cc2c(Oc3cc(C)c(C)nc3-c3cccnc3)ccnc2cc1OCCCCO [Compound r444],100,,,
COc1cc2c(Oc3cc(C)c(C)nc3-c3ccccn3)ccnc2cc1OCCCCO [Compound r445],99,,,
COc1cc2c(Oc3cc(C)c(C)nc3-c3cccc(C)n3)ccnc2cc1OCC1CO1 (stereo not drawn) [Compound r446],35,89,,
COc1cc2c(Oc3cc(C)c(C)nc3-c3cccc(C)n3)ccnc2cc1OCCCO [Compound r447],94,100,,
COc1cc2c(Oc3cc(C)c(C)nc3-c3cccc(C)n3)ccnc2cc1OCC(CO)CO [Compound r448],70,97,,
COc1cc2c(Oc3cc(C)c(C)nc3-c3cccc(C)n3)ccnc2cc1OCC(O)CO (stereo not drawn) [Compound r449],74,98,,
COc1cc2c(Oc3cc(C)c(C)nc3-c3cccc(C)n3)ccnc2cc1OCCO [Compound r450],94,100,,
COc1cc2c(Oc3cc4cccnc4nc3C)ccnc2cc1OCCN1CCC(O)CC1 [Compound r451],99,100,,
COc1cc2c(Oc3cc(C)c(C)nc3-c3ccc(C)cn3)ccnc2cc1OCc1ccccc1 [Compound r452],67,99,,
COc1cc2c(Oc3cc(C)c(C)nc3-c3ccc(C)cn3)ccnc2cc1O [Compound r453],72,98,,
COc1cc2c(Oc3cc(C)c(C)nc3-c3nc(C)c(C)s3)ccnc2cc1OCc1ccccc1 [Compound r454],41,75,,
COc1cc2c(Oc3cc(C)c(C)nc3-c3nc(C)c(C)s3)ccnc2cc1O [Compound r455],76,99,,
COc1cc2c(Oc3cc4ccccc4nc3C(C)=O)ccnc2cc1OCCCO [Compound r456],99,100,,
COc1cc2c(Oc3cc(C)c(C)nc3-c3ccc(C)cn3)ccnc2cc1OCC1CO1 (stereo not drawn) [Compound r457],97,100,,
COc1cc2c(Oc3cc(C)c(C)nc3-c3nc(C)c(C)s3)ccnc2cc1OCC1CO1 (stereo not drawn) [Compound r458],94,100,,
COc1cc2c(Oc3cc(C)c(C)nc3-c3ccc(C)cn3)ccnc2cc1OCCO [Compound r459],98,,,
COc1cc2c(Oc3cc(C)c(C)nc3-c3ccc(C)cn3)ccnc2cc1OCCCO [Compound r460],97,,,
COc1cc2c(Oc3cc(C)c(C)nc3-c3nc(C)c(C)s3)ccnc2cc1OCCO [Compound r461],82,,,
COc1cc2c(Oc3cc(C)c(C)nc3-c3nc(C)c(C)s3)ccnc2cc1OCCCO [Compound r462],99,,,
COc1cc2c(Oc3cc(C)c(C)nc3-c3ccc(C)cn3)ccnc2cc1OCC(O)CO (stereo not drawn) [Compound r463],77,99,,
COc1cc2c(Oc3cc(C)c(C)nc3-c3nc(C)c(C)s3)ccnc2cc1OCC(O)CO (stereo not drawn) [Compound r464],97,100,,
COc1cc2c(Oc3cc(C)c(C)nc3-c3cccc(C)n3)ccnc2cc1OCCCl [Compound r465],98,100,,

Structure (SMILES),inhibition at 3 µM [1] [%],inhibition at 10 µM [2] [%],inhibition at 3 µM [3] [%],inhibition at 10 µM [4] [%]
COc1cc2c(Oc3cc(C)c(C)nc3-c3ccc(C)cn3)ccnc2cc1OCCCl [Compound r466],99,100,,
COc1cc2c(Oc3cc4ccccc4nc3C(C)=O)ccnc2cc1OCCN1CCCCC1 [Compound r467],100,,,
COc1cc2c(Oc3cc(C)c(C)nc3-c3cccc(C)n3)ccnc2cc1OCCNCCO [Compound r468],99,,,
COc1cc2nccc(Oc3ccc(C)cc3C)c2cc1OC [r5],,,13,56
CCOC(=O)/C(C)=C/c1cc(OC)ccc1Oc1ccnc2cc(OC)c(OC)cc12 [r8],,,10,59
CCCCC(O)c1cc(C)ccc1Oc1ccnc2cc(OC)c(OC)cc12 (stereo not drawn) [r10],,,38,87
COc1cc2nccc(Oc3ccc(C)cc3-c3ccno3)c2cc1OC [r12],,,21,89
COc1cc2nccc(Oc3ccc(C)cc3[N+](=O)[O-])c2cc1OC [r13],,,28,78
COc1cc2nccc(Oc3ccc(C)c(C)c3)c2cc1OC [r15],,,41,84
COc1cc2nccc(Oc3ccc4cc(Br)ccc4c3)c2cc1OC [r18],,,15,69
COc1cc2nccc(Oc3ccc4ncccc4c3)c2cc1OC [r24],,,66,91
COc1ccc(C(C)=O)c(Oc2ccnc3cc(OC)c(OC)cc23)c1 [r31],,,49,98
COc1cc2nccc(Oc3ccc(F)cc3C(C)=O)c2cc1OC [r33],,,27,94
COc1cc2nccc(Oc3ccc(Br)cc3C(C)=O)c2cc1OC [r34],,,0,78
COc1cc(OC)c(C(C)=O)c(Oc2ccnc3cc(OC)c(OC)cc23)c1 [r40],,,12,83
COc1cc2nccc(Oc3ccc4ccccc4c3C(C)=O)c2cc1OC [r42],,,90,93
CCC(=O)c1cccc(F)c1Oc1ccnc2cc(OC)c(OC)cc12 [r43],,,0,66
CCC(=O)c1ccc(OC)cc1Oc1ccnc2cc(OC)c(OC)cc12 [r44],,,97,100
CCC(=O)c1cc(Cl)ccc1Oc1ccnc2cc(OC)c(OC)cc12 [r46],,,70,100
COc1cc2nccc(Oc3ccccc3C(=O)/C=C/c3ccccc3)c2cc1OC [r57],,,10,55
